Assay results published in PMC2994021, “Isolation of cytoplasmic NADPH-dependent phenol hydroxylase and catechol-1,2-dioxygenase from Candida tropicalis yeast” (Interdisciplinary Toxicology, 2010).

Test system: T1, NADPH-dependent phenol hydroxylase
T1 construct: native enzyme purified from cytosol of phenol-grown yeast (DEAE-Sepharose, PEG 6000, Sepharose 4B), close to homogeneity
Experiment: HPLC of phenol consumption, Michaelis-Menten kinetics
Type: biochemical, Candida tropicalis
Conditions: with NADPH; same Km from catechol formation; read-out: apparent Km

Oc1ccccc1 [phenol]
Km: 450 µM
